Data reported in patent US10150736B2, “Haptens and immunoreactive agents and use thereof for producing family antibodies and immunoassays for quinolones” (Consejo Superior de Investigaciones Cientificas (CSIC), priority 2010, dated 2018).
In brackets after ≈: the same amount, converted by molar mass.

Experiments:
Assay type in all cases: binding, rabbit
[1] = system: antibodies developed with immunoreactive agents described herein; assay: Determination of cross-reactivity by ELISA; settings: for % CR (cross-reactivity): (DI50 CPFX/DI50 of tested compounds)×100; for IC50: competitive ELISA, antiserum and immunoreactive agent not named
Description: (§1) Microtiter plates were coated with corresponding coating antigen (indirect format) or antiserum (direct format) dissolved in coating buffer (100 μL/well) overnight at 4° C. or during 4 hours at room temperature and covered with airtight adhesive plates. Subsequently, plates were washed with PBST (four times, 300 μL/well) and quinolone patters were added (0.01 nM-10000 nM, in PBST, 50 μL/well) followed by the corresponding antiserum (indirect format) or enzymatic tracer (direct format) (50 μL/well) in microtiter plates. After 30 minutes at room temperature, plates were washed as described above and, in the case of indirect format, a solution of antilgG rabbit IgG labelled with HRP (1/6000 in PBST) (100 μl/well) was added and incubated for 30 minutes at room temperature. Plates were washed again, and for both formats, substrate solution was added (100 μL/well). Color development was stopped after 30 minutes at room temperature with […] (50 μL/well), and absorbance was read at 450 nm. Standard curves were adjusted to a four parameter equation, using the following formula: Y−[(A−B)/1−[x/C)D]+B, where A represents maximum absorbance, B represents minimum absorbance, C represents the concentration producing 50% of maximum absorbance, and D represents the tangent at the inflection point of sigmoid curve.
Stock solutions were prepared at a concentration of […] for different quinolones and other antibiotics in sodium hydroxide ([…]) and measured by ELISA. Cross-reactivity values were calculated according to the equation below: (DI50 CPFX/DI50 of tested compounds)×100.

antiserum (As) 171 [2] = assay: Competitive ELISA for ciprofloxacin, antiserum 171, coating antigen (indirect format)
Description: (§2) Immunization protocol was conducted in female white rabbits from New Zealand weighing 1-2 Kg, as described previously (Salvador, Analytical Chemistry. 2007, 79, 3734-3740). Immunogens (100 μg) dissolved in PBS (0.5 mL) were emulsified with Freund's adjuvant, completely the first time and the remainder incompletely, in 1:1 ratio. They were rapidly injected intradermally in different places of the host animal back (one injection per month). Antibody titers evolution was assessed by measuring serial dilutions binding of different antiserum in microtiter plates coated with the corresponding immunoreactive agent. After observing an acceptable antibody titer, animals were bled to death and their blood was collected in Vacutainer tubes fitted with a serum separating gel. Antiserum were obtained by centrifugation and stored at −80° C. in the presence of 0.02% NaN3.
as §1, with “Plates were washed again, and for both formats, substrate solution was added (100 μL/well).” left out

antiserum (As) 172 = assay: Competitive ELISA for ciprofloxacin, antiserum 172, coating antigen (indirect format)
Description: as §2
as §1, with “Plates were washed again, and for both formats, substrate solution was added (100 μL/well).” left out

antiserum (As) 173 = assay: Competitive ELISA for ciprofloxacin, antiserum 173, coating antigen (indirect format)
Description: as §2
as §1, with “Plates were washed again, and for both formats, substrate solution was added (100 μL/well).” left out

antiserum (As) 171 [3] = assay: Competitive ELISA for ciprofloxacin, antiserum 171 with HRP conjugate I31 (enzymatic tracer); settings: As 171 dilution 1/8000; IR I31 0.0625 μg/mL
Description: as §2, with “After observing an acceptable antibody titer, animals were bled to death and their blood was collected in Vacutainer tubes fitted with a serum separating gel. Antiserum were obtained by centrifugation and stored at −80° C. in the presence of 0.02% NaN3.” left out
Microtiter plates were coated with corresponding coating antigen (indirect format) or antiserum (direct format) dissolved in coating buffer (100 μL/well) overnight at 4° C. or during 4 hours at room temperature and covered with airtight adhesive plates. […] Color development was stopped after 30 minutes at room temperature with […] (50 μL/well), and absorbance was read at 450 nm. Standard curves were adjusted to a four parameter equation, using the following formula: Y−[(A−B)/1−[x/C)D]+B, where A represents maximum absorbance, B represents minimum absorbance, C represents the concentration producing 50% of maximum absorbance, and D represents the tangent at the inflection point of sigmoid curve.

| SMILES | IC50 [1] | % CR (cross-reactivity) [1] | also measured |
| --- | --- | --- | --- |
| O=C(O)c1cn(C2CC2)c2cc(N3CCNCC3)c(F)cc2c1=O [Ciprofloxacin] | 0.77 ± 0.27 μg-L^−1 | 100% | IC50 (antiserum (As) 171 [2]; As 171 dilution 1/16000, IR I16 2.5 μg/mL): 16.40 µg/L (≈ 0.0495 µM); IC50 (antiserum (As) 171 [2]; As 171 dilution 1/16000, IR I26 0.25 μg/mL): 1.66 µg/L (≈ 0.00501 µM); IC50 (antiserum (As) 171 [2]; As 171 dilution 1/128000, IR I19 0.0156 μg/mL): 4.81 µg/L (≈ 0.0145 µM); IC50 (antiserum (As) 172; As 172 dilution 1/4000, IR I16 2.5 μg/mL): 38.39 µg/L (≈ 0.116 µM); IC50 (antiserum (As) 172; As 172 dilution 1/4000, IR I26 0.25 μg/mL): 11.56 µg/L (≈ 0.0349 µM); IC50 (antiserum (As) 172; As 172 dilution 1/32000, IR I19 0.0156 μg/mL): 27.60 µg/L (≈ 0.0833 µM); IC50 (antiserum (As) 173; As 173 dilution 1/16000, IR I16 5 μg/mL): 134.68 µg/L (≈ 0.406 µM); IC50 (antiserum (As) 173; As 173 dilution 1/16000, IR I26 0.25 μg/mL): 1.49 µg/L (≈ 0.0045 µM); IC50 (antiserum (As) 173; As 173 dilution 1/128000, IR I19 0.0156 μg/mL): 48.55 µg/L (≈ 0.147 µM); IC50 (antiserum (As) 171 [3]): 0.81 µg/L (≈ 0.00244 µM) |
| CN1C[C@@H]2C[C@H]1CN2c1cc2c(cc1F)c(=O)c(C(=O)O)cn2C1CC1 [Danofloxacin] | 7.31 μg-L^−1 | 8% | – |
| CCN1CCN(c2cc3c(cc2F)c(=O)c(C(=O)O)cn3C2CC2)CC1 [Enrofloxacin] | 0.65 μg-L^−1 | 95% | – |
| CN1CCN(c2c(F)cc3c(=O)c(C(=O)O)cn4c3c2OCN4C)CC1 [Marbofloxacin] | 4.30 μg-L^−1 | 28% | – |
| CCn1cc(C(=O)O)c(=O)c2cc(F)c(N3CCNCC3)cc21 [Norfloxacin] | 0.78 μg-L^−1 | 81% | – |
| CCn1cc(C(=O)O)c(=O)c2cc3c(cc21)OCO3 [Oxolinic acid] | 23.53 μg-L^−1 | 4% | – |
| Nc1ccc(S(=O)(=O)Nc2nccs2)cc1 [Sulfathiazole] | >1000 μg-L^−1 | <0.2% | – |

Further lines, with some results ahead:

| IC50 [1] | SMILES | % CR (cross-reactivity) [1] | also measured |
| --- | --- | --- | --- |
| >1000 μg-L^−1 | CC1(C)S[C@@H]2[C@H](NC(=O)[C@H](N)c3ccccc3)C(=O)N2[C@H]1C(=O)O [Ampicillin] | <0.2% | – |
| >1000 μg-L^−1 | O=C(N[C@H](CO)[C@H](O)c1ccc([N+](=O)[O-])cc1)C(Cl)Cl [Chloramphenicol] | <0.2% | – |
| 0.91 μg-L^−1 | CN1CCN(c2cc3c(cc2F)c(=O)c(C(=O)O)cn3-c2ccc(F)cc2)CC1 [Difloxacin] | 75% | – |
| 3.91 μg-L^−1 | CC1CCc2cc(F)cc3c(=O)c(C(=O)O)cn1c23 (stereo not drawn) [Flumequine] | 22% | – |
| 0.96 μg-L^−1 | O=C(O)c1cn(-c2ccc(F)cc2)c2cc(N3CCNCC3)c(F)cc2c1=O [Sarafloxacin] | 80% | – |
| >1000 μg-L^−1 | Cc1cc(C)nc(NS(=O)(=O)c2ccc(N)cc2)n1 [Sulfamethazine] | <0.2% | – |
